# Entries after “also recorded” stand apart in the source; their conditions may differ.
# Assays:
# [1] = system: alpha-L-iduronidase (IDUA); experiment: IDUA enzyme activity in MPS-I patient-derived fibroblast cells (4-Methylumbelliferyl α-L-iduronide substrate); format: cell-based, human; conditions: compound 48 hours, vs buffer only control, FIG. 1
# Experimental: (§1) A cell culture experiment was performed in MPS-I patient-derived fibroblast cells. Cells were cultured overnight in a 384-well plate, at a concentration of 20,000 cells per well in advanced DMEM media (Life Technologies) supplemented with 15% FBS (Life technologies), 1× Glutamax (Life Technologies) and beta-mercaptoethanol (1:125000 dilution). The next day, cells were treated with the indicated compound with final concentrations including, but not limited to: 100 μM, 30 μM, 10 μM, 3.3 μM, 1.1 μM, 0.37 μM and 0.12 μM depending on experiment. Treated cells were then incubated for 48 hours at 37° C., 5% CO2, 95% humidity. Cells were then washed with HBSS buffer, and 25 μM of the fluorogenic substrate 4-Methylumbelliferyl α-L-iduronide (free acid) (Santa Cruz Biotechnology) were added in the presence of 0.2M CHNaO2, 0.1% BSA, and 0.1% Triton X. After the addition of the 4-Methylumbelliferyl α-L-iduronide substrate, cells were incubated at 37° C. for 3 to 4 hours, placed at room temperature for 30 minutes to stabilize and alpha-L-iduronidase (IDUA) enzyme activity was measured using the EnVision Multilabel Plate Reader (Perkin Elmer, Inc.). Compounds were purchased from Tocris, Cayman Chemicals or Sigma-Aldrich.
# [2] = system: α-L-iduronidase (IDUA) mRNA; experiment: IDUA mRNA expression in MPS I patient cells (normalized to GAPDH); format: cell-based, human; conditions: 48 hours
# Experimental: as §1, with “μ[…]” for “μM, 30 μM, 10 μM, 3.3 μM, 1.1 μM, 0.37 μM”, “Sigma-Aldrich. Tests were subsequently conducted to determine whether the increase in activity could in-part be attributed to increases in gene expression. […] Resveratrol and Piceatannol were added to patient cells for 48 hours, in the same conditions mentioned above.” for “Sigma-Aldrich.”
# alpha-L-iduronidase = alpha-L-iduronidase activity in plasma of treated mice; format: in vivo; conditions: for alpha-L-iduronidase activity in plasma: 25 mg/kg or 50 mg/kg daily, 1 month; for α-iduronidase activity in plasma at 50 mg/kg/day: one month
smiles,measurement,setting,value
"Oc1ccc(/C=C/c2cc(O)cc(O)c2)cc1 [CTI-102, 3,5,4′-trihydroxystilbene]",IDUA enzyme activity,[1],increase in IDUA activity
same,IDUA mRNA level,"[2]; FIG. 2, listed as resveratrol",increased the mRNA level; also recorded: increase in IDUA mRNA expression
same,alpha-L-iduronidase activity in plasma,alpha-L-iduronidase; FIG. 3,Increases in alpha-L-iduronidase activity
same,alpha-L-iduronidase activity in plasma,"alpha-L-iduronidase; FIG. 3, listed as resveratrol",elevation of α-iduronidase activity
same,α-iduronidase activity in plasma at 50 mg/kg/day,alpha-L-iduronidase; FIG. 3,substantial boosts in enzyme activity
"Oc1cc(O)cc(/C=C/c2ccc(O)c(O)c2)c1 [CTI-101, piceatannol]",IDUA mRNA level,"[2]; FIG. 2, listed as Piceatannol",increase in IDUA mRNA expression
same,IDUA mRNA level,"[2]; FIG. 2, listed as piceatannol",increased the mRNA level
same,alpha-L-iduronidase activity in plasma,alpha-L-iduronidase; FIG. 3,Increases in alpha-L-iduronidase activity
same,alpha-L-iduronidase activity in plasma,"alpha-L-iduronidase; FIG. 3, listed as piceatannol",elevation of α-iduronidase activity
same,α-iduronidase activity in plasma at 50 mg/kg/day,alpha-L-iduronidase; FIG. 3,substantial boosts in enzyme activity
